What all share (experiment): In vitro antibacterial activity (MIC)
What all share (assay type): cell-based

The test system of assay [1] is Pseudomonas putida. An excerpt:
(§1) The compound of formula I, wherein R^1 is hydrogen, and salts thereof, are active as antibacterial agents of medium potency both in vitro and in vivo, and the compounds of formula I, wherein R^1 is an ester-forming residue readily hydrolyzable in vivo are active as antibacterial agents of medium potency in vivo.

For assay [2], the system named is Enterobacter clocae.
Description: as §1

The subject of assay [3] is Serratia marcescens.
Description: as §1

Assay [4] concerns Escherichia coli.
Description: as §1

Assay [5] deals with Enterobacter aerogenes. As to conditions: Klebsiella aerogenes.
Description: as §1

The test system of assay [6] is Hemophilus influenzae. As to conditions: Haemophilus influenzae.
Description: as §1

For assay [7], the system named is Pasteurella multocida.
Description: as §1

Assay [8] has as its system Staphylococcus epidermis.
Description: as §1

In assay [9] the test system is Streptococcus pyogenes.
Description: as §1

The subject of assay [10] is Proteus mirabilis.
Description: as §1

The subject of assay [11] is Streptococcus faecalis. As to conditions: Enterococcus faecalis.
Description: as §1

The test system of assay [12] is Salmonella typhimurium. As to conditions: Salmonella enterica.
Description: as §1

In assay [13] the test system is Pseudomonas aeruginosa.
Description: as §1

The subject of assay [14] is Neisseria gonorrhoeae.
Description: as §1

For assay [15], the system named is Staphylococcus aureus.
Description: as §1

Assay [16] deals with Klebsiella pneumoniae.
Description: as §1

Assay [17] concerns Providencia.
Description: as §1

The subject of assay [18] is Proteus morgani.
Description: as §1

Assay [19] has as its system Citrobacter freundii.
Description: as §1

Values after ≈ are worked out from the molar mass of the structure shown.

With `CC1(C)[C@H](C(=O)O)N2C(=O)C[C@H]2S1(=O)=O` [Penicillanic Acid 1,1-Dioxide], the MIC in assay [1] turned out to be 200 µg/mL (≈ 857 µM); in assay [2] it was 100 µg/mL (≈ 429 µM); in assay [3] it was 100 µg/mL (≈ 429 µM); in [4] it was 50 µg/mL (≈ 214 µM); in assay [5] it was 25 µg/mL (≈ 107 µM); in assay [6] it was 50 µg/mL (≈ 214 µM). The MIC in assay [7] stood at 50 µg/mL (≈ 214 µM); in assay [8], 200 µg/mL (≈ 857 µM); in [9], 100 µg/mL (≈ 429 µM); in [10], 100 µg/mL (≈ 429 µM); in assay [11], 200 µg/mL (≈ 857 µM); in assay [12], 50 µg/mL (≈ 214 µM). Further, the MIC is 200 µg/mL (≈ 857 µM) in assay [13]; 0.312 µg/mL (≈ 1.34 µM) in [14]; 100 µg/mL (≈ 429 µM) in [15]; 50 µg/mL (≈ 214 µM) in assay [16]; 100 µg/mL (≈ 429 µM) in [17]; 100 µg/mL (≈ 429 µM) in assay [18]. Further, in assay [19], the MIC came out at 50 µg/mL (≈ 214 µM).

(Values after patent publication US4420426A, “6-Alpha-halopenicillanic acid 1,1-dioxides” (Pfizer Inc., priority 1980, dated 1983).)
